Measurements from patent EP0858509B1, “DNA SEQUENCES ENCODING CMH-1, A CYSTEINE PROTEASE INVOLVED IN APOPTOSIS” (VERTEX PHARMACEUTICALS INCORPORATED, priority 1995, dated 1997).

Target: T1, CMH-1 (Homo sapiens, UniProt P55210)
T1 construct: we expressed an N-terminal (His)6-tagged CMH-1(Ala24-Gln303) in E. coli; made in house; host or cells: E. coli BL21(DE3), pET-15b
T1 sequence (P55210 24-303): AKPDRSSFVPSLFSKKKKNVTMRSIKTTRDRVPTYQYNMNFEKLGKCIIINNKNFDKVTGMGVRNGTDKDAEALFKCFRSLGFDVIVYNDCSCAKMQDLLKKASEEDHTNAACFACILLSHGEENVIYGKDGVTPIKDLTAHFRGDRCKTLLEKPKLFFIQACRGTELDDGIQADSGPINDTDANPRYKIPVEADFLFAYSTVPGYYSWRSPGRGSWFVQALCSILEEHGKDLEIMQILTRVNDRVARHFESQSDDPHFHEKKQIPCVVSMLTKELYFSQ
T1 sequence (P55210 199-303): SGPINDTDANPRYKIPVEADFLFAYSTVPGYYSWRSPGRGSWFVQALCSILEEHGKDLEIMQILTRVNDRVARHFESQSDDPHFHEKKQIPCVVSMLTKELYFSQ
Experiment: Inhibition of in vitro cleavage of 35S-labelled PARP by CMH-1 (SDS-PAGE and fluorography)
Format: biochemical
Settings: 35S-labelled PARP as substrate, Fig. 4, panel B
Method: In order to determine the activity of purified CMH-1, we determined whether the protein could cleave ^35[S]-labeled pro-IL-1b and PARP and compared its cleavage activity to purified ICE. We prepared ^35[S]-labeled PARP and IL-1b precursor (pro-IL-1b) by in vitro transcription and translation. Cleavage experiments were carried out as described previously [Y. Gu et al., J. Biol. Chem. (1995)]. Cleavage products were analyzed by SDS-PAGE and fluorography as described in that reference.

Compound | inhibition of the cleavage activity of CMH-1
CCN1C(=O)C=CC1=O [N-ethylmaleimide] | inhibited
NC(=O)CI [iodoacetamide] | inhibited
YVAD-CHO | not
